The values that follow come from the RepoRT retention time repository (doi:10.1016/j.jchromb.2020.122105).

Each structure is given as a SMILES string.

Common to all, as to conditions: stereoisomer not certain
The nature of data set [1]: RP, Waters ACQUITY UPLC BEH C18, 100 × 2.1 mm, 1.7 µm, 0.1 mL/min, estimated dead time 2.2 min; A: water + 0.1% formic acid, pH 3; B: methanol + 0.1% formic acid, pH 3; gradient (min/%B) 0/5 5/5 25/100 30/100 30.1/5 35/5.
The nature of data set [2]: RP, Waters CORTECS T3, 100 × 2.1 mm, 2.7 µm, 0.3 mL/min, estimated dead time 0.73 min; A: water + 0.1% formic acid, pH 3; B: methanol + 0.1% formic acid, pH 3; gradient (min/%B) 0/0 5/0 25/100 30/100 30.1/0 35/0.
A short description of data set [3]: RP, Thermo Scientific Hypercarb, 150 × 2.1 mm, 5 µm, 0.1 mL/min, estimated dead time 3.3 min; A: water + 0.1% formic acid, pH 3; B: methanol + 0.1% formic acid, pH 3; gradient (min/%B) 0/5 5/5 20/100 35/100 35.1/5 45/5.
The nature of data set [4]: RP, Waters CORTECS T3, 100 × 2.1 mm, 2.7 µm, 0.25 mL/min, estimated dead time 0.88 min; A: water + 0.1% formic acid, pH 3; B: methanol + 0.1% formic acid, pH 3; gradient (min/%B) 0/0 1/0 6/5 30/100 35/100 35.1/0 40/0.
The nature of data set [5]: RP, Waters CORTECS T3, 100 × 2.1 mm, 2.7 µm, 0.3 mL/min, estimated dead time 0.73 min; A: water + 0.1% formic acid, pH 3; B: methanol + 0.1% formic acid, pH 3; gradient (min/%B) 0/0 1/0 6/5 30/100 35/100 35.1/0 40/0.
Data set [6] in a line: RP, Waters CORTECS T3, 100 × 2.1 mm, 2.7 µm, 0.3 mL/min, estimated dead time 0.73 min; A: water + 0.1% formic acid, pH 3; B: methanol + 0.1% formic acid, pH 3; gradient (min/%B) 0/5 5/5 25/100 30/100 30.1/5 35/5.
The nature of data set [7]: RP, Waters CORTECS T3, 100 × 2.1 mm, 2.7 µm, 0.2 mL/min, estimated dead time 1.1 min; A: water + 0.1% formic acid, pH 3; B: methanol + 0.1% formic acid, pH 3; gradient (min/%B) 0/0 1/0 6/5 30/100 35/100 35.1/0 40/0.
The nature of data set [8]: RP, Waters CORTECS T3, 100 × 2.1 mm, 2.7 µm, 0.3 mL/min, estimated dead time 0.73 min; A: water + 0.1% formic acid, pH 3; B: methanol + 0.1% formic acid, pH 3; gradient (min/%B) 0/5 5/5 25/95 25.1/100 35/100 35.1/5 45/5.
Data set [9] in a line: RP, Waters CORTECS T3, 100 × 2.1 mm, 2.7 µm, 0.15 mL/min, estimated dead time 1.5 min; A: water + 0.1% formic acid, pH 3; B: methanol + 0.1% formic acid, pH 3; gradient (min/%B) 0/0 1/0 6/5 30/100 35/100 35.1/0 40/0.
Data set [10] in a line: RP, Waters CORTECS T3, 100 × 2.1 mm, 2.7 µm, 0.1 mL/min, estimated dead time 2.2 min; A: water + 0.1% formic acid, pH 3; B: methanol + 0.1% formic acid, pH 3; gradient (min/%B) 0/0 1/0 6/5 30/100 35/100 35.1/0 40/0.
Data set [11] in a line: RP, Waters CORTECS T3, 100 × 2.1 mm, 2.7 µm, 0.1 mL/min, estimated dead time 2.2 min; A: water + 0.1% formic acid, pH 3; B: methanol + 0.1% formic acid, pH 3; gradient (min/%B) 0/5 5/5 25/95 25.1/100 35/100 35.1/5 45/5.
A short description of data set [12]: RP, Waters ACQUITY UPLC BEH C18, 100 × 2.1 mm, 1.7 µm, 0.2 mL/min, estimated dead time 1.1 min; A: water + 0.025% formic acid + 20 mM ammonium acetate + 0.055% ammonium hydroxide, pH 7; B: methanol; gradient (min/%B) 0/5 5/5 25/100 30/100 30.1/5 35/5.
Data set [13] in a line: RP, Waters CORTECS T3, 100 × 2.1 mm, 2.7 µm, 0.2 mL/min, estimated dead time 1.1 min; A: water + 0.045% formic acid + 0.11% ammonium hydroxide, pH 7; B: methanol; gradient (min/%B) 0/5 5/5 25/95 25.1/100 35/100 35.1/5 45/5.
Data set [14] is described as follows: HILIC, Merck SeQuant ZIC-HILIC, 150 × 2.1 mm, 5 µm, 0.75 mL/min, estimated dead time 0.44 min; A: water + 0.1% acetic acid + 10 mM ammonium acetate, pH 4; B: 5% water + 95% acetonitrile + 0.1% acetic acid + 10 mM ammonium acetate, pH 4; gradient (min/%B) 0/95 5/95 20/57 25/57 30/95 40/95.
Data set [15] can be described thus: HILIC, Waters XBridge BEH Amide, 100 × 2.1 mm, 2.5 µm, 0.5 mL/min, estimated dead time 0.44 min; A: water + 0.1% acetic acid + 10 mM ammonium acetate, pH 4; B: 5% water + 95% acetonitrile + 0.1% acetic acid + 10 mM ammonium acetate, pH 4; gradient (min/%B) 0/95 5/95 20/57 25/57 30/95 40/95.
A short description of data set [16]: RP, Waters ACQUITY UPLC BEH C18, 100 × 2.1 mm, 1.7 µm, 0.1 mL/min, estimated dead time 2.2 min; A: water + 0.045% formic acid + 0.11% ammonium hydroxide, pH 7; B: methanol; gradient (min/%B) 0/5 5/5 25/95 25.1/100 35/100 35.1/5 45/5.
Data set [17] is described as follows: RP, Waters CORTECS T3, 100 × 2.1 mm, 2.7 µm, 0.3 mL/min, estimated dead time 0.73 min; A: water + 0.1% formic acid, pH 3; B: methanol + 0.1% formic acid, pH 3; gradient (min/%B) 0/0 1/0 6/5 30/100 35/100 35.1/0 40/0. The source holds these as a separate data set.
Data set [18] is described as follows: RP, Waters CORTECS T3, 100 × 2.1 mm, 2.7 µm, 0.2 mL/min, estimated dead time 1.1 min; A: water + 0.1% formic acid, pH 3; B: methanol + 0.1% formic acid, pH 3; gradient (min/%B) 0/5 5/5 25/95 25.1/100 35/100 35.1/5 45/5.

In the case of `Nc1cccc2ccccc12` [1-NAPHTHYLAMINE], the LC retention time is 16.5 min in data set [1]; 11.5 min in data set [2]; 30.6 min in data set [3]; 12.6 min in data set [4]; 11.8 min in data set [5]; 10.2 min in data set [6]. For the same compound, the LC retention time in [7] was 13.5 min; in data set [8] it was 10.3 min; in [9], 15.2 min; in data set [10], 12.1 min; in data set [11], 16.1 min; in [12], 14.7 min. In addition, in data set [13], the LC retention time was 14.5 min.

Take `O=c1[nH]c(=O)c2nccnc2[nH]1` [2,4-DIHYDROXYPTERIDINE]: the LC retention time is 5.19 min in data set [1], 1.46 min in data set [14] and 1.7 min in data set [15].

On to `CC(=O)OCC(=O)C1(O)CCC2C3CCC4=CC(=O)CCC4(C)C3C(O)CC21C` (stereo not drawn) [CORTISOL 21-ACETATE], for which the LC retention time in [1] is 22.3 min; in [2] it was 18.6 min; in data set [4], 21.6 min; in [5] it was 21.1 min; in data set [6], 18.1 min; in data set [7], 22.4 min. Also, the LC retention time in data set [8] was 18.6 min; in [9], 23.6 min; in data set [10], 19.9 min; in [16], 22.9 min; in [11], 22.9 min; in [12], 19.4 min. Moreover, the LC retention time in [13] was 19.9 min.

In the case of `CCOC(=O)Cc1c[nH]c2ccccc12` [ETHYL 3-INDOLEACETATE], the LC retention time in [2] is 17.5 min; in data set [5] it was 19.6 min; in data set [6], 16.9 min; in data set [7] it was 21.1 min; in [8], 17.4 min; in [9], 22.4 min. Also, the LC retention time in data set [10] is 18.8 min; in data set [16], 22.5 min; in data set [11] it was 22.1 min; in data set [13], 18.9 min.

As for `Cc1cc2nc3c(=O)[nH]c(=O)nc-3n(CC(O)C(O)C(O)COP(=O)(O)OP(=O)(O)OCC3OC(n4cnc5c(N)ncnc54)C(O)C3O)c2cc1C` (stereo not drawn) [FLAVIN ADENINE DINUCLEOTIDE], the LC retention time in data set [17] is 12.1 min.

For the compound `O=CCc1c[nH]c2ccccc12` [INDOLE-3-ACETALDEHYDE], the LC retention time in [1] is 13.6 min; in data set [4] it was 11.3 min; in [5] it was 10.8 min; in [6], 9.2 min; in [7] it was 12.1 min; in data set [8], 9.27 min. Besides, the LC retention time in data set [9] is 13.3 min; in [10] it was 10.6 min; in data set [16] it was 13.7 min; in data set [11], 13.8 min; in [12], 10.6 min; in [13] it was 10.7 min.

For `NC(=O)CC[C@H](N)C(=O)O` [L-GLUTAMINE], the LC retention time in data set [3] is 4.84 min; in [18] it was 2.48 min; in data set [14], 12.9 min; in [15], 13 min.

With `N[C@H](CO)Cc1cnc[nH]1` [L-HISTIDINOL], the LC retention time in data set [3] was 4.68 min; in [16] it was 3.33 min; in data set [12] it was 1.79 min; in data set [13], 1.54 min; in [15] it was 11.4 min.

For `NC(=O)[C@@H](N)Cc1c[nH]c2ccccc12` [L-TRYPTOPHANAMIDE], the LC retention time is 11.2 min in data set [1]; 8.34 min in data set [2]; 8.41 min in data set [4]; 7.63 min in [5]; 4.89 min in [6]; 9.28 min in data set [7]. Further, the LC retention time in [9] is 10.8 min; in [10] it was 7.08 min; in [16] it was 14.1 min; in data set [11], 11.1 min; in data set [12], 10.1 min; in [13], 9.97 min.

`COC1OC(CO)C(O)C(O)C1O` [METHYL BETA-D-GALACTOSIDE]: the LC retention time in [14] was 5.01 min; in [15] it was 4.84 min.

Consider `COC(=O)Cc1c[nH]c2ccccc12` [METHYL INDOLE-3-ACETATE], for which the LC retention time is 20.5 min in data set [1]; 16 min in data set [2]; 17.6 min in data set [5]; 15.3 min in data set [6]; 19.3 min in data set [7]; 15.7 min in [8]. Besides, the LC retention time is 20.6 min in data set [9]; 17.2 min in data set [10]; 20.9 min in [16]; 20.5 min in data set [11]; 17.2 min in data set [13].

Regarding `NC(N)=N[C@@H](CC(=O)O)C(=O)O` [N-AMIDINO-L-ASPARTATE], the LC retention time in data set [2] was 0.89 min; in [3], 12.7 min; in [9], 1.78 min; in data set [15], 14.5 min.

As for `CNCCc1c[nH]c2ccccc12` [N-METHYLTRYPTAMINE], the LC retention time is 13.3 min in data set [1]; 9.75 min in data set [2]; 10.4 min in [4]; 9.8 min in data set [5]; 8.14 min in data set [6]; 11.2 min in [7]. For the same compound, the LC retention time is 8.19 min in data set [8]; 12.5 min in [9]; 9.68 min in data set [10]; 14.4 min in [16]; 13.1 min in [11]; 11.1 min in data set [12]. In addition, the LC retention time in data set [13] is 10.7 min.
